# Experimental data from BindingDB's records for doi:10.1111/cbdd.12604 (Nanjing University, 2015).
# Biological target: 72 kDa type IV collagenase (Homo sapiens, UniProt P08253)
# Experiment: MMP-2 Inhibition Assay
# Method: This esterase assay used 4-nitrophenylacetate as a substrate. Initially, the rhMMP-2 was diluted to 100 µg/mL with 1 mM APMA in assay buffer. Later, the reaction was incubated at 37℃ for 1 hour. Then the rhMMP-2 was diluted to 0.2 µg/mL in assay buffer, whereas the substrate was diluted to 20 µM by assay buffer. To each well of 96-well plate, 50 µL diluted rhMMP-2 was loaded along with 100 µL diverse concentration of test compounds. The reaction was started by adding 50 μL of 20 μM substrate to each well. After progress in kinetic mode for 5 minutes, the results were read at excitation and emission wavelengths of 320 nm and 405 nm, respectively.
# 72 kDa type IV collagenase, sequence (P08253 whole entry): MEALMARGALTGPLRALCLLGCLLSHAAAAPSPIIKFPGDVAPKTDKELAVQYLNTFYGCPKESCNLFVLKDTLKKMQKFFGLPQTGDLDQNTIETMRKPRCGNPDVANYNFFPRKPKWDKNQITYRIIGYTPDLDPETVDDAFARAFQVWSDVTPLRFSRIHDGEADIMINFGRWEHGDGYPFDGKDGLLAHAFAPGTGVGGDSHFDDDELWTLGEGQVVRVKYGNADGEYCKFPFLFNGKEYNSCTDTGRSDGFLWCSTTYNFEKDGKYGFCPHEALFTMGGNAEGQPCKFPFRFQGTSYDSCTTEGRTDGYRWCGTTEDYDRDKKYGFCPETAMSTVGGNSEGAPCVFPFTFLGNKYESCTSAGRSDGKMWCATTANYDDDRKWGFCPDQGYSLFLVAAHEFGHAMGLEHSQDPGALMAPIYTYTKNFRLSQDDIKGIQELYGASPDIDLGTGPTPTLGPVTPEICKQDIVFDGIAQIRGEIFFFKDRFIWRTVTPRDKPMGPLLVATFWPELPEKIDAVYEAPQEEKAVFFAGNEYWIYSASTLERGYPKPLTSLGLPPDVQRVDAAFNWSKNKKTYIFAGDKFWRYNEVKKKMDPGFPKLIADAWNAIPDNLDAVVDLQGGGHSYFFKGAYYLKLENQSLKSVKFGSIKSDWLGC
row,Compound,IC50
1,"NS(=O)(=O)c1ccc(N2N=C(c3ccccc3Cl)CC2c2ccccc2O)cc1 (stereo unspecified) [4-(3-(2-Chlorobenzene)-5-(2-hydroxyphenyl)-4,5-dihydropyrazole) benzene sulfonamide (4b)]",11.5 µM
2,"Cc1ccc(C2=NN(c3ccc(S(N)(=O)=O)cc3)C(c3ccccc3O)C2)cc1C (stereo unspecified) [4-(3-(3,4-Dimethylphenyl)-5-(2-hydroxyphenyl)-4,5-dihydropyrazole) benzene sulfonamide (4f)]",4.65 µM
3,"NS(=O)(=O)c1ccc(N2N=C(c3ccc(Br)cc3)CC2c2cc(Cl)ccc2O)cc1 (stereo unspecified) [4-(3-(4-Brominephenyl)-5-(5-chloro-2-hydroxyphenyl)-4,5-dihydropyrazole) benzene sulfonamide (4m)]",18.9 µM
4,"COc1cccc(C2=NN(c3ccc(S(N)(=O)=O)cc3)C(c3ccccc3O)C2)c1 (stereo unspecified) [4-(5-(2-Hydroxyphenyl)-3-(3-oxygenmethylphenyl)-4,5-dihydropyrazole) benzene sulfonamide (4e)]",1.81 µM
5,"NS(=O)(=O)c1ccc(N2N=C(c3ccccc3Cl)CC2c2cc(Br)ccc2O)cc1 (stereo unspecified) [4-(5-(5-Bromine-2-hydroxyphenyl)-3-(2-chlorobenzene)-4,5-dihydropyrazole) benzene sulfonamide (4t)]",15 µM
6,"COc1cccc(C2=NN(c3ccc(S(N)(=O)=O)cc3)C(c3cc(Br)ccc3O)C2)c1 (stereo unspecified) [4-(5-(5-Bromine-2-hydroxyphenyl)-3-(3-oxygenmethylphenyl)-4,5-dihydropyrazole) benzene sulfonamide (4r)]",3.23 µM
7,"NS(=O)(=O)c1ccc(N2N=C(c3ccc(Br)cc3)CC2c2cc(Br)ccc2O)cc1 (stereo unspecified) [4-(5-(5-Bromine-2-hydroxyphenyl)-3-(4-brominephenyl)-4,5-dihydropyrazole) benzene sulfonamide (4v)]",8.73 µM
8,"NS(=O)(=O)c1ccc(N2N=C(c3ccc(Cl)cc3)CC2c2cc(Br)ccc2O)cc1 (stereo unspecified) [4-(5-(5-Bromine-2-hydroxyphenyl)-3-(4-chlorobenzene)-4,5-dihydropyrazole) benzene sulfonamide (4u)]",15.8 µM
9,"NS(=O)(=O)c1ccc(N2N=C(c3ccc(Cl)c(Cl)c3)CC2c2ccc(Cl)cc2O)cc1 (stereo unspecified) [4-(5-(5-Chloro-2-hydroxyphenyl)-3-(3,4-dichlorobenzenebase)-4,5-dihydropyrazole) benzene sulfonamide (4n)]",16.5 µM
10,"COc1cccc(C2=NN(c3ccc(S(N)(=O)=O)cc3)C(c3cc(Cl)ccc3O)C2)c1 (stereo unspecified) [4-(5-(5-Chloro-2-hydroxyphenyl)-3-(3-oxygenmethylphenyl)-4,5-dihydropyrazole) benzene sulfonamide (4p)]",2.13 µM
11,"NS(=O)(=O)c1ccc(N2N=C(c3ccc(Cl)cc3)CC2c2cc(Cl)ccc2O)cc1 (stereo unspecified) [4-(5-(5-Chloro-2-hydroxyphenyl)-3-(4-chlorobenzene)-4,5-dihydropyrazole) benzene sulfonamide (4k)]",11.3 µM
12,"CCOc1ccc(C2=NN(c3ccc(S(N)(=O)=O)cc3)C(c3ccc(Cl)cc3O)C2)cc1 (stereo unspecified) [4-(5-(5-Chloro-2-hydroxyphenyl)-3-(4-phenylethyloxygen)-4,5-dihydropyrazole) benzene sulfonamide (4o)]",3.84 µM
13,"C[C@@]1(O)c2cccc(O)c2C(O)=C2C(=O)[C@]3(O)C(O)=C(C(N)=O)C(=O)C[C@@H]3C[C@@H]21 [(4aS,5aS,6S,12aR)-1,6,10,11,12a-pentahydroxy-6-methyl-3,12-dioxo-4,4a,5,5a-tetrahydrotetracene-2-carboxamide]",1.13 µM
14,"COc1ccc(C2=NN(c3ccc(S(N)(=O)=O)cc3)C(c3ccc(Cl)cc3O)C2)cc1 (stereo unspecified) [-(5-(5-Chloro-2-hydroxyphenyl)-3-(4-methylphenyloxygen)-4,5-dihydropyrazole) benzene sulfonamide (4l)]",4.62 µM

# Further compounds by falling IC50, results first:
row,IC50,Compound
1,24.7 µM,"NS(=O)(=O)c1ccc(N2N=C(c3ccc(F)cc3)CC2c2ccccc2O)cc1 (stereo unspecified) [4-(5-(2-Hydroxyphenyl)-3-(4-fluorinatedphenyl)-4,5-dihydropyrazole) benzene sulfonamide (4x)]"
2,16.4 µM,"NS(=O)(=O)c1ccc(N2N=C(c3ccccc3Cl)CC2c2cc(Cl)ccc2O)cc1 (stereo unspecified) [4-(5-(5-Chloro-2-hydroxyphenyl) -3 - (2 - chlorobenzene) - 4, 5 - dihydropyrazole) benzene sulfonamide (4i)]"
3,16.2 µM,"NS(=O)(=O)c1ccc(N2N=C(c3ccc(Cl)c(Cl)c3)CC2c2cc(Br)ccc2O)cc1 (stereo unspecified) [4-(5-(5-Bromine-2-hydroxyphenyl)-3-(3,4-dichlorobenzene)-4,5-dihydropyrazole) benzene sulfonamide (4w)]"
4,13.5 µM,"NS(=O)(=O)c1ccc(N2N=C(c3ccccc3)CC2c2ccc(Cl)cc2O)cc1 (stereo unspecified) [4-(5-(5-Chloro-2-hydroxyphenyl)-3-phenyl)-4,5-dihydro benzene sulfonamide pyrazole) (4j)]"
5,12.9 µM,"NS(=O)(=O)c1ccc(N2N=C(c3ccc(Cl)c(Cl)c3)CC2c2ccccc2O)cc1 (stereo unspecified) [4-(3-(3,4-Dichlorobenzenebase)-5-(2-hydroxyphenyl)-4,5-dihydropyrazole) benzene sulfonamide (4g)]"
6,12.8 µM,"NS(=O)(=O)c1ccc(N2N=C(c3ccccc3)CC2c2cc(Br)ccc2O)cc1 (stereo unspecified) [4-(5-(5-Bromine-2-hydroxyphenyl)-3-phenyl-4,5-dihydropyrazole) benzene sulfonamide (4q)]"
7,1.83 µM,"COc1ccc(C2=NN(c3ccc(S(N)(=O)=O)cc3)C(c3ccccc3O)C2)cc1 (stereo unspecified) [4-(5-(2-Hydroxyphenyl)-3-(4-methoxyphenyl)-4,5-dihydropyrazole) benzene sulfonamide (4y)]"
